Assay results taken from publication PMC5450539, “Anti-Inflammatory Activity and Structure-Activity Relationships of Brominated Indoles from a Marine Mollusc” (Marine Drugs, 2017).
Where a name gives a salt, the structure may show the parent alone. Read-outs that look alike come from different tables or passages of the source. One block for each molecule: values may come before it.

Experiments:
PGE2 = tested on: PGE2; parameters: method as in Matheus et al. [37]; details: ref Matheus et al. [37]; cited from earlier work
NO production = tested on: NO production; parameters: method as in Matheus et al. [37]; details: ref Matheus et al. [37]; cited from earlier work
TNFα production = assay: TNF-alpha inhibition assay (ELISA) in LPS-stimulated RAW264.7 macrophages; type: cell-based, mouse; details: for IC50: max test concentration 50 µg/mL, read-out: TNFα IC50
Protocol: The amount of TNFα was quantified in cell culture media using murine TNFα ELISA kits (BD bioscience). In brief, the RAW264.7 mouse macrophages (6 × 10^5 cells/mL) were stimulated with LPS (100 ng/mL) 1 h after treatment with several concentrations of extracts (0.08–50 μg/mL). After 18 h, the supernatant was collected and TNFα production was measured by reading the absorbance at 450 nm wavelength on an Anthos Zenyth 200rt microplate reader (Anthos Labtech Instruments). Dexamethasone at a concentration of 2.5 μM was used as a positive control, with a negative control of 0.35% DMSO.
(§1) All data were processed in Microsoft Office Excel 2013 (MS) first to obtain descriptive statistics. One-way Analysis of Variance (ANOVA) followed by Dunnett’s multiple comparisons test was performed using GraphPad Prism version 6.00 for Windows (GraphPad Software, La Jolla, CA, USA, www.graphpad.com), with p < 0.05 considered significant. The inhibitory concentration responsible for a 50% reduction in cell viability or production of inflammatory markers (IC50) was calculated using the regression analysis, Probit in SPSS v21.

[1] = tested on: 3T3 ccl-92 mouse fibroblast; assay: Crystal violet cytotoxicity assay, 3T3 ccl-92; type: cell-based; details: 24 h incubation; max test concentration 50 µg/mL; > = <50% reduction in viability at max
Protocol: (§2) All extract/compounds were dissolved in DMSO and tested at 5 different concentrations of 50, 10, 2, 0.4, and 0.08 μg/mL for all anti-inflammatory assays unless otherwise noted. The final concentration of DMSO was 0.35% v/v for extracts and compounds. All samples were tested in triplicate at each concentration and each assay was independently repeated at least 3 times. The concentrations used for the cytotoxicity assays were 50, 25, 12.5, 6.25. and 3.125 μg/mL.
(§3) To check for cytotoxicity of the extracts and compounds against RAW264.7 mouse macrophage and 3T3 ccl-92 mouse fibroblast cell lines, the crystal violet cytotoxicity test was used according to the published protocol. In brief, RAW264.7 cells were seeded with a density of 2 × 10^4 cells/well in a 96-well plate and then incubated for 18–24 h. The following day the compounds/extracts were added and then incubated for 24 h before the media was aspirated and the cells washed twice in a gentle stream of water. After removing the water, 50 µL of 0.5% crystal violet staining solution were added and the cells were incubated for 20 min at room temperature. The plate was then washed 4 times with water and air dried for 2 h. Finally, 200 μL of methanol was added to each well and incubated for 20 min at room temperature on a rocker. This was followed by measuring the optical density at 570 nm with a plate reader Anthos Zenyth 200rt (Anthos Labtec Instruments, Heerhugowaard, The Netherlands). Chlorambucil was used as a positive control.

[2] = tested on: RAW264.7 mouse macrophage; assay: Crystal violet cytotoxicity assay, RAW264.7; details: 24 h incubation; max test concentration 50 µg/mL; > = <50% reduction in viability at max, ~ = close to 50%
Protocol: as §2, §3

[3] = Crystal violet cytotoxicity assay, RAW264.7; details: mouse
Protocol: as §2, §3

[4] = tested on: nitric oxide (NO) production; assay: NO inhibition assay (Greiss) in LPS-stimulated RAW264.7 macrophages; type: cell-based, mouse; details: for IC50: read-out: NO IC50; for NO inhibitory activity (in words): LPS-stimulated RAW264.7, up to 50 µg/mL; for lowest concentration with significant inhibition of NO production: significant vs DMSO control; for reduction of NO production: 50 µg/mL (maximum test concentration), relative to DMSO control
Protocol: RAW264.7 macrophages were incubated 1 h with extracts/compounds prior to the addition of LPS. […] Then, 20 h after the addition of LPS, the supernatant was collected. […] The plates were incubated for 15–20 min in the dark, then read at 550 nm wavelength on an Anthos Zenyth 200rt (Anthos Labtec Instruments). Sodium nitrite was used to prepare a standard curve to quantify the nitrite from the absorbance readings in this assay. All data were processed in Microsoft Office Excel 2013 (MS) first to obtain descriptive statistics. One-way Analysis of Variance (ANOVA) followed by Dunnett’s multiple comparisons test was performed using GraphPad Prism version 6.00 for Windows (GraphPad Software, La Jolla, CA, USA, www.graphpad.com), with p < 0.05 considered significant.

NFκB translocation = assay: Assessment of NFκB translocation in LPS-stimulated RAW264.7; type: cell-based; details: Mus musculus, RAW264.7, 40 µg/mL, LPS-stimulated RAW264.7, relative to DMSO + LPS
Protocol: This assay was performed according to the published protocol in Olivera et al.. RAW264.7 mouse macrophages were seeded at 400,000 cells/well in 800 μL in 4-well chambered slides and incubated overnight. The cells were then incubated with the test samples (40 μg/mL HBG extract, 6-bromoisatin, or 6-bromoindole) for 1 h prior to stimulation with LPS (700 ng/mL) for 30 min. After stimulation, the cells were washed with PBS and fixed with 3.7% paraformaldehyde for 15 min. […] The cells were washed with PBS and incubated with rabbit anti-p65 NFκB antibody (1:500) and goat anti-mouse IκB (1:500) overnight at 4 °C. The following day, the cells were washed again three times with PBS and incubated for 1 h with goat-anti-rabbit IgG conjugated with Alexa Fluor 594 (1:1000) and donkey anti-mouse IgG conjugated with Alexa fluor 488 (1:1000) at room temperature. Finally, the cells were washed with PBS then mounted with Prolong mounting media containing DAPI before visualising using the Olympus Flouview FVi10 confocal microscope (Olympus, Tokyo, Japan). Using ImageJ (v1.50i, National Institutes of Health, Bethesda, MD, USA), an outline was drawn around each nucleus by adjusting the colour threshold of DAPI. Mean fluorescence inside the nucleus was measured, along with several adjacent background readings. The total corrected cellular fluorescence (TCCF) was calculated by applying the equation TCCF = integrated density − (area of selected cell × mean fluorescence of background readings). This TCCF was then used to calculate the %inhibition of the NFκB translocation against the positive control where the cells were treated with LPS in the presence of the Vehicle (0.35% DMSO v/v) in Microsoft Office Excel 2013 (Redmond, WA, USA).

PGE2 production = assay: PGE2 inhibition assay (ELISA) in calcium ionophore-stimulated 3T3 ccl-92 fibroblasts; type: cell-based, mouse; details: for IC50: calcium ionophore-stimulated 3T3 ccl-92, max test concentration 50 µg/mL
Protocol: The levels of PGE2 were measured in cell media using a Cayman Prostaglandin E2 Express ELISA Kit (Cayman Chemical, Ann Arbor, MI, USA) according to the manufacturer’s instructions. In brief, the 3T3 ccl-92 fibroblasts (1 × 10^5 cells/mL) were grown overnight in a 96-well plate and then treated with extracts/compounds 3 h before being stimulated with Calcium ionophore (50 μM). After 20 min, supernatants were collected and PGE2 production was quantified by measuring the absorbance at 405 nm wavelength with an Anthos Zenyth 200rt (Anthos Labtech Instruments). Indomethacin at a concentration of 100 μM was used as a positive control and ~0.5% DMSO as a negative control.
as §1

[5] = Crystal violet cytotoxicity assay, 3T3 ccl-92; type: cell-based, mouse; details: mouse, 3T3 ccl-92 fibroblast cells; 3T3, 50 µg/mL, 24 h incubation, compared to DMSO-treated wells
Protocol: as §2, §3

[6] = Mus musculus, RAW264.7, LPS-stimulated RAW264.7
[7] = Mus musculus, RAW264.7, LPS-stimulated RAW264.7, max test concentration 50 µg/mL

SMILES: O=C1Nc2cccc(Br)c2C1=O [4-bromoisatin]
inhibition of PGE2 (in words) (PGE2): did not inhibit | inhibition of NO production (in words) (NO production): did not inhibit

SMILES: O=C1Nc2ccc(Br)cc2C1=O [5-bromoisatin]
IC50 (TNFα production; LPS-stimulated RAW264.7, listed as 5-bromoisatin (9)): 38 µM | IC50 (TNFα production; [6]): 38.1 µM | inhibition at 50 µg/mL (TNFα production; Mus musculus, RAW264.7, 50 μg/mL): 100% | Cytotoxicity 3T3 ccl-92 (test concentration which causes toxicity) [1]: NA (not active at maximum test concentration 50 µg/mL) | Cytotoxicity RAW264.7 (test concentration which causes toxicity) [2]: ~221.21 µM | viability at 24 h, 50 µg/mL [3]: 55% | IC50 ([4]; LPS-stimulated RAW264.7, max test concentration 50 µg/mL, listed as 5-bromoisatin (9)): 152 µM | IC50 [4, 7]: 152 µM | IC50 [4, 6]: 34.3 µg/mL

IC50 [4, 7]: > 50 µg/mL
SMILES: O=C1C(=C2Nc3cc(Br)ccc3C2=O)Nc2cc(Br)ccc21 [6,6 dibromoindigo]
Cytotoxicity 3T3 ccl-92 (test concentration which causes toxicity) [1]: NA (not active at maximum test concentration 50 µg/mL) | NO inhibitory activity (in words) [4]: minimal inhibitory activity

IC50 [4, 7]: > 50 µg/mL
SMILES: O=C1Nc2cc(Br)ccc2C1=C1Nc2ccccc2C1=O [6-bromoindirubin]
viability at 24 h, 50 µg/mL [3]: 56.2% | NO inhibitory activity (in words) [4]: minimal inhibitory activity

SMILES: Brc1ccc2cc[nH]c2c1 [6-bromoindole]
IC50 (TNFα production; LPS-stimulated RAW264.7, listed as 6-bromoindole (11)): 150 µM | IC50 (TNFα production; [6]): 150 µM | inhibition at 40 µg/mL (NFκB translocation): 60.7% | IC50 (PGE2 production; Mus musculus, Fibroblast): 223 µM | IC50 (PGE2 production; listed as 6-bromoindole (11)): 223 µM | lowest concentration with significant PGE2 inhibition (PGE2 production; p < 0.05 vs solvent control): 0.08 µg/mL | Cytotoxicity 3T3 ccl-92 (test concentration which causes toxicity) [1]: NA (not active at maximum test concentration 50 µg/mL) | Cytotoxicity RAW264.7 (test concentration which causes toxicity) [2]: >255.04 µM | viability at 24 h, 50 µg/mL [3]: 66.4% | IC50 [4, 7]: 187 µM

IC50 (TNFα production; LPS-stimulated RAW264.7, listed as 6-bromoisatin (4)): 123 µM | IC50 (TNFα production; [6]): 123 µM | IC50 [4, 7]: 120 µM | IC50 [4, 6]: 27.1 µg/mL
SMILES: O=C1Nc2cc(Br)ccc2C1=O [6-bromoisatin]
inhibition at 40 µg/mL (NFκB translocation): 63.7% | IC50 (PGE2 production; Mus musculus, Fibroblast): > 221 µM | inhibition at 0.08 µg/mL (PGE2 production; Mus musculus, Fibroblast, 0.08 µg/mL): 10% | inhibition at 50 µg/mL (PGE2 production; Mus musculus, Fibroblast, 50 μg/mL): 40% | Cytotoxicity 3T3 ccl-92 (test concentration which causes toxicity) [1]: NA (not active at maximum test concentration 50 µg/mL) | lowest concentration with significant inhibition of NO production [4]: 0.4 µg/mL

IC50 [4, 7]: > 50 µg/mL
SMILES: O=C1Nc2c(Br)cccc2C1=O [7-bromoisatin]
Cytotoxicity 3T3 ccl-92 (test concentration which causes toxicity) [1]: >221.21 µM | viability at 24 h, 50 µg/mL [5]: 80.9% | viability at 24 h, 50 µg/mL [3]: 81.9% | reduction of NO production [4]: less than 5%

SMILES: O=C1Nc2ccc(I)cc2C1=O [Compound 5-iodoisatin, 5-iodoisatin]
inhibition of PGE2 (in words) (PGE2): did not inhibit | inhibition of NO production (in words) (NO production): did not inhibit

IC50 [4, 7]: > 50 µg/mL
SMILES: CSc1[nH]c2cc(Br)ccc2c1OS(=O)(=O)O [Tyrindoxyl sulfate, tyrindoxyl sulfate]
Cytotoxicity 3T3 ccl-92 (test concentration which causes toxicity) [1]: NA (not active at maximum test concentration 50 µg/mL)

SMILES: C[C@@H]1C[C@H]2[C@@H]3CCC4=CC(=O)C=C[C@]4(C)[C@@]3(F)[C@@H](O)C[C@]2(C)[C@@]1(O)C(=O)CO [dexamethasone, reference compound]
inhibition at 2.5 µM ([4]; Mus musculus, RAW264.7, working concentration 2.5 µM, positive control): 56%

IC50 [4, 7]: > 50 µg/mL
SMILES: O=C1Nc2ccccc2/C1=C1/Nc2ccccc2C1=O [indirubin]
Cytotoxicity 3T3 ccl-92 (test concentration which causes toxicity) [1]: NA (not active at maximum test concentration 50 µg/mL) | NO inhibitory activity (in words) [4]: minimal inhibitory activity

IC50 (TNFα production; LPS-stimulated RAW264.7, listed as Tyrindoleninone (3)): 157 µM | IC50 (TNFα production; [6]): 157 µM | IC50 [4, 7]: 103 µM | IC50 [4, 6]: 26.4 µg/mL
SMILES: CSC1=Nc2cc(Br)ccc2C1=O [tyrindoleninone]
Cytotoxicity 3T3 ccl-92 (test concentration which causes toxicity) [1]: NA (not active at maximum test concentration 50 µg/mL) | viability at 24 h, 50 µg/mL [3]: 84.1% | lowest concentration with significant inhibition of NO production [4]: 0.08 µg/mL

IC50 [4, 7]: > 97.2 µM
SMILES: CSC1(C2(SC)Nc3cc(Br)ccc3C2=O)Nc2cc(Br)ccc2C1=O (stereo not shown) [tyriverdin]
Cytotoxicity 3T3 ccl-92 (test concentration which causes toxicity) [1]: NA (not active at maximum test concentration 50 µg/mL) | reduction of NO production [4]: less than 50% | lowest concentration with significant inhibition of NO production [4]: 10 µg/mL
